Laboratory results as given in the supplement of paper PMC3493320.

What follows are compounds tested on NCI-H295R (assay: IC50 (antiproliferative, ATP content)). Settings: 48 h.
How it was run: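 Adrenocortical carcinoma cells were plated at 1500 per well in 1536-well plates in serum-free DMEM with ITS supplement, left overnight, then given library compounds by pin transfer at 8 final concentrations spanning 0.6 nM to 46 µM and held 48 h at 37 °C, 5% CO2. ATP was measured as CellTiter-Glo luminescence after 20 min at room temperature and scaled between vehicle and positive-control wells. A four-parameter logistic model was fitted to each series. The IC50 was taken from these fits, and compounds without a concentration response were recorded as above the top dose.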

Structure (SMILES)	IC50
CC(COc1ccccc1)N(CCCl)Cc1ccccc1 (stereo unspecified)	> 46 µM
CC1(C)S[C@@H]2[C@H](NC(=O)C(C(=O)[O-])c3ccccc3)C(=O)N2[C@H]1C(=O)[O-].[Na+].[Na+] (stereo partly specified)	> 46 µM
CCCCC	> 46 µM
Cl.NCc1ccc(S(N)(=O)=O)cc1	> 46 µM
CCN(CC)CCOc1ccccc1C(=O)CCc1ccccc1	> 46 µM
O=C(O)c1cccnc1Nc1cccc(C(F)(F)F)c1	> 46 µM
NCC[C@H](O)C(=O)N[C@@H]1C[C@H](N)[C@@H](O[C@H]2O[C@H](CN)[C@@H](O)[C@H](O)[C@H]2O)[C@H](O)[C@H]1O[C@H]1O[C@H](CO)[C@@H](O)[C@H](N)[C@H]1O	> 46 µM
O=C(c1ccccc1)c1ccc2n1CCC2C(=O)O (stereo unspecified)	> 46 µM
OCC(=O)[C@@]3(O)CC[C@H]2[C@@H]4CC\C1=C\C(=O)CC[C@]1(C)[C@H]4C(=O)C[C@@]23C	> 46 µM
C[C@@H]1C[C@H]2[C@@H]3C[C@H](F)C4=CC(=O)C=C[C@]4(C)[C@@]3(Cl)[C@@H](O)C[C@]2(C)[C@H]1C(=O)COC(=O)C(C)(C)C	> 46 µM
CCOC(=O)C1=C(C)NC(C)=C(C(=O)OC)C1c1cccc([N+](=O)[O-])c1 (stereo unspecified)	> 46 µM
Cc1nc2ccccc2n1Cc1ccc(Cl)cc1	> 46 µM
CC(C)=CCC1C(=O)N(c2ccccc2)N(c2ccccc2)C1=O	> 46 µM
Br.COc1ccc2c(c1)[C@]13CCCC[C@@H]1[C@H](C2)N(C)CC3.O	> 46 µM
CC(=O)NC[C@H]1CN(c2ccc(N3CCOCC3)c(F)c2)C(=O)O1	> 46 µM
COc1ccc(CN(CCN(C)C)c2ncccn2)cc1.Cl	> 46 µM
OCc1ccccc1O	> 46 µM
COP(=O)(OC)C(O)C(Cl)(Cl)Cl (stereo unspecified)	> 46 µM
CCc1ccc(C(=O)C(C)CN2CCCCC2)cc1.Cl (stereo unspecified)	> 46 µM
CC(O)CN(C)C (stereo unspecified)	> 46 µM
C[N+]12CCC(CC1)C(OC(=O)C(O)(c1ccccc1)c1ccccc1)C2.[Br-] (stereo unspecified)	> 46 µM

Structure (SMILES)	IC50
NS(=O)(=O)c1cc(C2(O)NC(=O)c3ccccc32)ccc1Cl (stereo unspecified)	> 46 µM
O=C(OCc1ccccc1)c1ccc(O)cc1	> 46 µM
Cc1cccc(C)c1NC(=O)c1ccccc1C(=O)O	> 46 µM
FC1=CC2=C(O[C@H]([C@@](N)=O)C[C@@]([C@@]3=O)2NC(N3)=O)C=C1	> 46 µM
CN(C)C(=S)SC(=S)N(C)C	> 46 µM
O=C([C@H]([C@]4=CC=CC=C4)CO)O[C@@H]1C[C@@H]3[C@@H]2[C@@H](O2)[C@@H]([N@+]([O-])3C)C1.Br	> 46 µM
CC(C)N1CCN(c2ccc(OC[C@H]3COC(Cn4cncn4)(c4ccc(Cl)cc4Cl)O3)cc2)CC1 (stereo partly specified)	> 46 µM
C[N+]1(CC2COC(c3ccccc3)(C3CCCCC3)O2)CCCCC1.[I-] (stereo unspecified)	> 46 µM
C=C1[C@@H]2CC[C@@H](C2)C1(C)C	> 46 µM
Cl.Cl.O=C(O)COCCN1CCN(C(c2ccccc2)c2ccc(Cl)cc2)CC1 (stereo unspecified)	> 46 µM
COP(=S)(OC)Oc1ccc(S(=O)(=O)N(C)C)cc1	> 46 µM
C[C@]12N[C@H](Cc3ccccc31)c1ccccc12.O=C(O)/C=C\C(=O)O	> 46 µM
O=C1OC(c2ccc(O)c(S(=O)(=O)[O-])c2)(c2ccc(O)c(S(=O)(=O)[O-])c2)c2c(Br)c(Br)c(Br)c(Br)c21.[Na+].[Na+]	> 46 µM
NCCCC(O)(P(=O)([O-])O)P(=O)(O)O.O.O.O.[Na+]	> 46 µM
CNNCc1ccc(C(=O)NC(C)C)cc1.Cl	> 46 µM
Oc1ccc(Cl)c2c1CCC2	> 46 µM
CCN(CC)C(=O)N[C@H]1C[C@@H]2c3cccc4[nH]cc(c34)C[C@H]2N(C)C1	> 46 µM
Cc1c(C(=O)NCCO)[n+]([O-])c2ccccc2[n+]1[O-]	> 46 µM
O=C(C)N1[C@](C[C@](O)([H])C1)([H])[C@@](O)=O	> 46 µM
CC(C)CCC[C@@H](C)[C@H]1CC[C@H]2[C@@H]3CC=C4C[C@@H](O)CC[C@]4(C)[C@H]3CC[C@]12C	> 46 µM
